Earlier results as cited in patent publication US10093983B2 (priority 2011, dated 2018).

Target: T1, D351Y or D351E mutant ESR1 (Homo sapiens, UniProt P03372, D351Y)
T1 sequence (P03372 1-595 D351Y): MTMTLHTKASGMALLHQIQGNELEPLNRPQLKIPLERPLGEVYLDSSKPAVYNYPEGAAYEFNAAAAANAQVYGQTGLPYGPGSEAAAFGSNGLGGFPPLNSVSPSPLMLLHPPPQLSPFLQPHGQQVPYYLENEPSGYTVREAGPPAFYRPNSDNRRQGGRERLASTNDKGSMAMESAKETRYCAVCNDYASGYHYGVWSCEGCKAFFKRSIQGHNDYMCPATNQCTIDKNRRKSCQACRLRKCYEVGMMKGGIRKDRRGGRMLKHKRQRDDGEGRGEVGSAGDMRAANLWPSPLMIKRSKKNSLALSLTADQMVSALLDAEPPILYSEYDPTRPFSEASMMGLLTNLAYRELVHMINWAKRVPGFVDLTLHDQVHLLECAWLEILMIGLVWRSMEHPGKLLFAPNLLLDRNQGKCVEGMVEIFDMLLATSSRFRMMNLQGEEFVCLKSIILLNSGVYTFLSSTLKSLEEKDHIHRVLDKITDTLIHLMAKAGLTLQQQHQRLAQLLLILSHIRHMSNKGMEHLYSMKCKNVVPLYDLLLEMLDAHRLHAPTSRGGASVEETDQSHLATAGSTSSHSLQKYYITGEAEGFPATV

effects of the antiestrogen upon mutating D351 to tyrosine: unaffected
Compound: C[C@]12CC[C@@H]3c4ccc(O)cc4C[C@@H](CCCCCCCCC[S+]([O-])CCCC(F)(F)C(F)(F)F)[C@H]3[C@@H]1CC[C@@H]2O (stereo partly shown) [fulvestrant]
